Activity calls are given as the source filed them. The calls are words filed in the database; no cut-off is given here.
Legend:
[1] = biological target: Mast/stem cell growth factor receptor Kit (Homo sapiens, UniProt P10721); assay: Inhibition of recombinant human wild-type N-terminal GST-His6-fused KIT C-terminal domain (T544 to V976 residues) expressed in Sf9 insect cells using TRK-C derived peptide as substrate measured after 60 mins in presence of [gamma-33P]-ATP by scintillation counting method
Mast/stem cell growth factor receptor Kit, sequence (P10721 whole entry, the tested form may be a part): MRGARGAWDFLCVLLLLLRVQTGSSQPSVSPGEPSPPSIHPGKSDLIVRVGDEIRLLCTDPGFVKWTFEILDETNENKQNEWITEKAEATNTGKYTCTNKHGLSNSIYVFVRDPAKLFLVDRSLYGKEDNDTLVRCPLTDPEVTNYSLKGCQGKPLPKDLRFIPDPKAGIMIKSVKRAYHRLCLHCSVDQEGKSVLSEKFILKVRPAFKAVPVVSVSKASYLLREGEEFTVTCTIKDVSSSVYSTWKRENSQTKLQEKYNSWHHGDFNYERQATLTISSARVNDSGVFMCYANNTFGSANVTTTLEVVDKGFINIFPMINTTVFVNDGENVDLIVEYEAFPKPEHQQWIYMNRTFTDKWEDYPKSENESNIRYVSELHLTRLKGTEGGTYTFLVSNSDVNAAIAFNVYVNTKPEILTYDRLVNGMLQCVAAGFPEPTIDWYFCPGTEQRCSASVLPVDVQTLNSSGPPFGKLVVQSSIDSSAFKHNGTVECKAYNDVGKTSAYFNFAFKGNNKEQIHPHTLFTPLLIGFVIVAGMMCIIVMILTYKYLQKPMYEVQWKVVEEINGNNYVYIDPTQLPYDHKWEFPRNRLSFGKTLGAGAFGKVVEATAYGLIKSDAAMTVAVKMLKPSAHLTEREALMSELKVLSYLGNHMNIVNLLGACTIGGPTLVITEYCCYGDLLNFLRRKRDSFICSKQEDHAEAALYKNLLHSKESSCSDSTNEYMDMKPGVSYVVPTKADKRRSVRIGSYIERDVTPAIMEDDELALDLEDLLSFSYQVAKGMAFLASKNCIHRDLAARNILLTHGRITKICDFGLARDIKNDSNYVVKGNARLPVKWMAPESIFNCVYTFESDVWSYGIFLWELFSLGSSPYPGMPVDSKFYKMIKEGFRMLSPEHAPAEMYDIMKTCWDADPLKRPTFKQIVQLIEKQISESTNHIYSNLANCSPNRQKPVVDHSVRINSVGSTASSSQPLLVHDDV

[2] = biological target: High affinity nerve growth factor receptor (Homo sapiens, UniProt P04629); assay: Inhibition of recombinant human wild-type N-terminal GST-His6-fused TRKA C-terminal domain (G443 to G796 residues) expressed in Sf9 insect cells using TRK-C derived peptide as substrate measured after 60 mins in presence of [gamma-33P]-ATP by scintillation counting method
High affinity nerve growth factor receptor, sequence (P04629 whole entry, the tested form may be a part): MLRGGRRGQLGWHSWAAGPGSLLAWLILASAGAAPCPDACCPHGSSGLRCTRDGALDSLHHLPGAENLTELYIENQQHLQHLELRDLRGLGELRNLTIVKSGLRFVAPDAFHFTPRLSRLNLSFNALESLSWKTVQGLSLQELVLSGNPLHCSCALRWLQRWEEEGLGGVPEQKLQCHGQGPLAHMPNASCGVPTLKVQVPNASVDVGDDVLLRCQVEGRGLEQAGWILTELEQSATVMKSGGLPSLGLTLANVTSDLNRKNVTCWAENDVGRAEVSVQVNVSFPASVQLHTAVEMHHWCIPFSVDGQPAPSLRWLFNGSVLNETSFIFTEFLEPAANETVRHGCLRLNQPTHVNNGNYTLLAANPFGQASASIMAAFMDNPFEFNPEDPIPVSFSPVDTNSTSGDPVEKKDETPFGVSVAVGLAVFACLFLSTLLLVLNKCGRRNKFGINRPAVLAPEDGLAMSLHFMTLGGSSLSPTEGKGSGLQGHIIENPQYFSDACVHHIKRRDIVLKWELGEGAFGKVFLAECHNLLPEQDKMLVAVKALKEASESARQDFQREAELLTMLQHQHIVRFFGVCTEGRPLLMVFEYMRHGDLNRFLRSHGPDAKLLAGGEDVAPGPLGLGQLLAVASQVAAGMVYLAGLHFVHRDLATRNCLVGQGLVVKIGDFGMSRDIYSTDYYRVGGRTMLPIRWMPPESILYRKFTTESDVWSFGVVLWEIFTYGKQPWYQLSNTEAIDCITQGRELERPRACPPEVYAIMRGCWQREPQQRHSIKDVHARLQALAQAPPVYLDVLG

[3] = biological target: Vascular endothelial growth factor receptor 1 (Homo sapiens, UniProt P17948); assay: Inhibition of recombinant human N-terminal GST-tagged VEGFR1 C-terminal domain (K784 to I1338 residues) expressed in Sf9 insect cells using Poly(Glu:Tyr)4:1 as substrate measured after 60 mins in presence of [gamma-33P]-ATP by scintillation counting method
Vascular endothelial growth factor receptor 1, sequence (P17948 whole entry, the tested form may be a part): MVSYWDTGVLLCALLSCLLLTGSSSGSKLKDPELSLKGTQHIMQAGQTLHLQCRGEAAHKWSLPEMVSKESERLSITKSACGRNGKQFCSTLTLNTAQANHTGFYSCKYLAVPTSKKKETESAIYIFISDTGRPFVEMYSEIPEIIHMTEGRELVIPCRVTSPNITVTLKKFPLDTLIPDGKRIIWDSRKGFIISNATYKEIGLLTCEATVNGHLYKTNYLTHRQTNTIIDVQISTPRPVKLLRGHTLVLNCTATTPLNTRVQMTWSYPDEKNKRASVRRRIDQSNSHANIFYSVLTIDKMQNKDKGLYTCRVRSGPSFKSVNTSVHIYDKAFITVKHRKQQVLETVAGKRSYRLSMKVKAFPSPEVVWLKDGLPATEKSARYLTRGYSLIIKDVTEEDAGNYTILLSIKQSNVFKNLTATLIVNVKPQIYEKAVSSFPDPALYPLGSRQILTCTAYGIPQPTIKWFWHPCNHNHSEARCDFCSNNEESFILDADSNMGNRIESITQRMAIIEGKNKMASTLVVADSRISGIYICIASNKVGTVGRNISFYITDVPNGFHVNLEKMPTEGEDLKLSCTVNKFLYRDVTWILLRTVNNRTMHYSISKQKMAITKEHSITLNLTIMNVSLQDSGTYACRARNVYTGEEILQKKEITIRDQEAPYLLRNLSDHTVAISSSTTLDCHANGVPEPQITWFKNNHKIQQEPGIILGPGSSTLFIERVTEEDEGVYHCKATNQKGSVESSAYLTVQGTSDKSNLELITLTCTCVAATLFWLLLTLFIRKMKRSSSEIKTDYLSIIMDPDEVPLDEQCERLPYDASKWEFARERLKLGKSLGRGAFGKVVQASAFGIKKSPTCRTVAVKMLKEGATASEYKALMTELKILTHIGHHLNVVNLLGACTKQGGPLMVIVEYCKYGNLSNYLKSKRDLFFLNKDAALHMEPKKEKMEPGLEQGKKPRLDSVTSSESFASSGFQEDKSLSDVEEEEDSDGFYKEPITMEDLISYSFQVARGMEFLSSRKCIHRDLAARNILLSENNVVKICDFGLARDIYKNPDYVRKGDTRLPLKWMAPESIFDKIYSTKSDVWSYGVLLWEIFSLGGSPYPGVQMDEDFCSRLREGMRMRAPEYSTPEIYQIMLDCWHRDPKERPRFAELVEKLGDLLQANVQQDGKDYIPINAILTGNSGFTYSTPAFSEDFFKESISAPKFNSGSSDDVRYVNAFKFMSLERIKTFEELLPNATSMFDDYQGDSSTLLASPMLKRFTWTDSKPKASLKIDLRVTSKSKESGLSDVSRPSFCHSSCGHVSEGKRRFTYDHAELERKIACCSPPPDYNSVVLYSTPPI

IEC-6 = assay: Induction of apoptosis in rat IEC-6 cells assessed as effect on PARP level at 0.1 to 0.6 uM after 24 hrs by FACS analysis; type: cell-based; conditions: iec-6, 24 h
[4] = biological target: Mitogen-activated protein kinase kinase kinase 9 (Homo sapiens, UniProt P80192); assay: Inhibition of recombinant human MAP3K9 measured after 60 mins in presence of [gamma-33P]-ATP by scintillation counting method
Mitogen-activated protein kinase kinase kinase 9, sequence (P80192 whole entry): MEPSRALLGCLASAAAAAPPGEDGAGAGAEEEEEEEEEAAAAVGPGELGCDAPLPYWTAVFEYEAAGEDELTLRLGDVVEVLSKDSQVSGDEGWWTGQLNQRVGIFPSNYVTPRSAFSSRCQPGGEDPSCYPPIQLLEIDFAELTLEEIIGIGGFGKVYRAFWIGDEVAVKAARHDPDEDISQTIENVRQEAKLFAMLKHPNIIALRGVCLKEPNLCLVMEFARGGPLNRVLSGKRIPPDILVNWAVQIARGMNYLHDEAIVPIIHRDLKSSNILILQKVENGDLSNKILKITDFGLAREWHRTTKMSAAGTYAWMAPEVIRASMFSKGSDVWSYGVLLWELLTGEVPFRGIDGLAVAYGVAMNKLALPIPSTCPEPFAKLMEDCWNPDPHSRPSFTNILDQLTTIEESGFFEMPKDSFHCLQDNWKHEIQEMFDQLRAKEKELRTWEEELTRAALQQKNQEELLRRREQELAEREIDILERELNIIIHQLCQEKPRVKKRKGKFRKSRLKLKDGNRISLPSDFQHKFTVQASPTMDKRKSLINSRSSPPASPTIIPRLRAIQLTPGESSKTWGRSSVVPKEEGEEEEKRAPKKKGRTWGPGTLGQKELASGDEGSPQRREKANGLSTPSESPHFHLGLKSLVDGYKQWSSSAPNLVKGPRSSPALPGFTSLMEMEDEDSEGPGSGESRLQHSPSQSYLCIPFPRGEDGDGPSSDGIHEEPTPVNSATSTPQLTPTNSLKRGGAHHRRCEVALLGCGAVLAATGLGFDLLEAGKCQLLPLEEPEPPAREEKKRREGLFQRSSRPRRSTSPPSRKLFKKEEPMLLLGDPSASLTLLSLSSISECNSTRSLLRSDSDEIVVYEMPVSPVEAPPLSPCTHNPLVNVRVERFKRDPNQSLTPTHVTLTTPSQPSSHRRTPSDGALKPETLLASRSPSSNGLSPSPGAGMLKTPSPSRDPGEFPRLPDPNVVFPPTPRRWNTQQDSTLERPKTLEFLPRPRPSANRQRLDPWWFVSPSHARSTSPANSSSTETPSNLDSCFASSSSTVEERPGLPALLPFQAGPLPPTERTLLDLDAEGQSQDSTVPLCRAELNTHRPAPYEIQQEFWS

HeLa [5] = assay: Antiproliferative activity against human HeLa cells assessed as decrease in cell viability measured after 72 hrs by MTT assay; type: functional, cell-based
[6] = biological target: Mitogen-activated protein kinase 15 (Homo sapiens, UniProt Q8TD08); assay: Inhibition of recombinant human N-terminal 4xFLAG-tagged/C-terminal His8-fused ERK7 N-terminal domain (M1 to R354 residues) expressed in Sf9 insect cells using RBER-CHKtide as substrate measured after 60 mins in presence of [gamma-33P]-ATP by scintillation counting method
Mitogen-activated protein kinase 15, sequence (Q8TD08 whole entry, the tested form may be a part): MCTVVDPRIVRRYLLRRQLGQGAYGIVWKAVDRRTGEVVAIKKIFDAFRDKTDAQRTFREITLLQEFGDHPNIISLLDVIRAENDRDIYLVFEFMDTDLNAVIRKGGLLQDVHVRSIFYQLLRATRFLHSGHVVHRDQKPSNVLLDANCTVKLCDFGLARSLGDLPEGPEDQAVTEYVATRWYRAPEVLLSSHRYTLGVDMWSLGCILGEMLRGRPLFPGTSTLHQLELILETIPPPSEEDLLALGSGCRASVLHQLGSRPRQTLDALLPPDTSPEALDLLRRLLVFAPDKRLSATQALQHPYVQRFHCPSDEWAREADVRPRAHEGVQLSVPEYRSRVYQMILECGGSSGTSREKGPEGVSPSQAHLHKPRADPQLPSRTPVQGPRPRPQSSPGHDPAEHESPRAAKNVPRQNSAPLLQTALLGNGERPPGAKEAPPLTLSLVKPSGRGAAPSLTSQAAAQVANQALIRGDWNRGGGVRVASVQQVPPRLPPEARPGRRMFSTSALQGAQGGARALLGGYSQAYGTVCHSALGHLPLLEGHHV

[7] = biological target: Hepatocyte growth factor receptor (Homo sapiens, UniProt P08581); assay: Inhibition of recombinant human wild-type N-terminal GST-His6-fused MET C-terminal domain (K956 to S1390 residues) expressed in Sf9 insect cells using TRK-C derived peptide as substrate measured after 60 mins in presence of [gamma-33P]-ATP by scintillation counting method
Jurkat = assay: Antiproliferative activity against human Jurkat T cells assessed as decrease in cell viability measured after 24 to 72 hrs by MTT assay; type: functional, cell-based
[8] = biological target: BDNF/NT-3 growth factors receptor (Homo sapiens, UniProt Q16620); assay: Inhibition of recombinant human N-terminal GST-His6-fused TRKB C-terminal domain (V526 to G838 residues) expressed in Sf9 insect cells using Poly(Glu:Tyr)4:1 as substrate measured after 60 mins in presence of [gamma-33P]-ATP by scintillation counting method
HeLa [9] = assay: Induction of apoptosis in human HeLa cells assessed as increase in hypodiploid nuclei at 0.3 to 0.6 uM measured after 24 hrs by propidium iodide staining-based FACS analysis; type: functional, cell-based
[10] = biological target: 3-phosphoinositide-dependent protein kinase 1 (Homo sapiens, UniProt O15530); assay: Inhibition of recombinant human N-terminal His6-fused PDK1 (M1 to M460 residues) expressed in Sf9 insect cells using tetra(LRRWSLG) peptide as substrate measured after 60 mins in presence of [gamma-33P]-ATP by scintillation counting method

CN(CCc1ccc(-c2ccccc2)cc1)Cc1cn(C)c2ccc(C(=O)Nc3ccc(F)cc3)cc12
IC50 [1]: 11 µM | IC50 [2]: 16 µM | IC50 [3]: 43 µM | Activity (IEC-6): Non-Toxic | IC50 [4]: 100 µM | IC50 (HeLa [5]): 0.33 µM | IC50 [6]: 61 µM | IC50 [7]: 61 µM | IC50 (Jurkat): 2.7 µM | IC50 [8]: 6.3 µM | Activity (HeLa [9]): Active | IC50 [10]: 11 µM

Source: ChEMBL document CHEMBL4340507, “Identification of an indol-based multi-target kinase inhibitor through phenotype screening and target fishing using inverse virtual screening approach” (Eur J Med Chem, 2019)
